Laboratory results as given in patent US9624228B2, “Inhibitors of ERK and methods of use” (KURA ONCOLOGY, INC., priority 2013, dated 2017).
pIC50: −log10 of the molar value. Where two headings read alike, the source gives them in different places.

Tests used:
[1] = tested on: phospho-RSK1 (Thr359/Ser363) in A375 (Braf V600E) cells; assay: Phospho-p90 RSK ELISA using A375 (Braf V600E) cells; format: cell-based; details: Homo sapiens, A-375, 2 hours compound treatment, read-out: Cellular Phospho-p90RSK IC50
Procedure: In preparation for the assay, an ELISA plate with the pre-coated goat anti-mouse antibody (Thermo Scientific) was treated with a mouse anti-human RSK1 antibody (monoclonal, Invitrogen) at 1:800 dilution (150 ng/well) in PBS, and the plate was placed on a plate shaker at 4° C. overnight. […] After two hours of the compound treatment, the supernatant was removed from the cell plate, and cells were lysed in 100 μl per well of cell lysis buffer (Cell Signaling Technologies) containing phosphatase and protease inhibitors (Cell Signaling Technologies) on a plate shaker at 4° C. for 20 minutes. The ELISA plate was washed four times with ELISA wash buffer (Thermo Scientific) prior to addition of 100 μL cell lysate. The lysate was incubated on the ELISA plate with gentle shaking at room temperature for 2 hours. The contents of the wells were removed, and the ELISA plate was washed four times with wash buffer, and incubated with 100 μL per well of anti-phospho-RSK1 (Thr359/Ser363) rabbit monoclonal antibody (Millipore) at dilution of 1:1000 in StartingBlock buffer (Thermo Scientific) on a plate shaker at room temperature for 1 hour. The contents of the wells were removed, the ELISA plate was washed four times with wash buffer, and was incubated with 100 μL per well of goat anti-rabbit HRP (Thermo Scientific) at dilution of 1:3000 in StartingBlock buffer (Thermo Scientific) on a plate shaker at room temperature for 1 hour. The contents of the wells were removed, the ELISA plate was washed four times with wash buffer, and then incubated with 100 μL per well of TMB substrate solution (Thermo Scientific) on a plate shaker at room temperature for 20 minutes. Finally, 100 μL of TMB stop solution (Thermo Scientific) was added to each well and the absorbance is measured at 450 nm on a Tecan plate reader.

ERK2 enzyme = ERK2 enzyme (Homo sapiens (Human), UniProt P28482); assay: Inhibition assay of ERK (Z'-LYTE kinase assay, Ser/Thr 3 peptide substrate); format: biochemical; details: 100 μM ATP
Chain of ERK2 enzyme (P28482 whole entry): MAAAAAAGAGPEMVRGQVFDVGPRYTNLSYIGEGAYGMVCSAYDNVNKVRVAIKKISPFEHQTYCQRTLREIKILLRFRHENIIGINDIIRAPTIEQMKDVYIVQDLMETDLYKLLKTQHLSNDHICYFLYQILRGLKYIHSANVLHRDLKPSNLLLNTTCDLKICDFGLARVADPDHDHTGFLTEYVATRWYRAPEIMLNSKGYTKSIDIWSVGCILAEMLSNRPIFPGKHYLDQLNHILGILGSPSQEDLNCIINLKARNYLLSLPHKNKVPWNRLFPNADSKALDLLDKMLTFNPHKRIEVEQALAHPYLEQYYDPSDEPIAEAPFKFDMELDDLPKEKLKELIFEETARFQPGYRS

[2] = control or reference compounds, 5 μM; cited from earlier work
A375 cells = assay: Tumor cell line proliferation assay (CellTiter Glo), A375; format: cell-based; details: Homo sapiens, read-out: A375 (V599E) Cell Proliferation IC50
H358 (Kras, G12C) cells = assay: Tumor cell line proliferation assay (CellTiter Glo), H358; details: Homo sapiens, NCI-H358, 96 h, read-out: H358 (Kras, G12C) Cell Proliferation IC50 (nM)
Procedure: (§1) The ability of one or more compounds of the invention to inhibit tumor cell line proliferation was determined according to standard procedures known in the art. For instance, an in vitro cellular proliferation assay was performed to measure the metabolic activity of live cells. […] The cells were incubated at 37° C. under 5% CO2 for two hours to allow for attachment to the plates. Compounds were first diluted in 1:3 dilutions in 100% DMSO at 250× the desired concentration, and then further diluted (1:50) in 10% DMEM growth medium. The diluted compounds were added to the cell plate (25 μL for a 5× dilution) and the cells are incubated with compounds (0.4% DMSO in 10% FBS DMEM) for 96 hours at 37° C. under 5% CO2. The cell control wells were added with vehicle only (0.4% DMSO in 10% FBS DMEM or in 10% FBS RPMI). Each concentration of the compounds was tested in duplicates. After 96 hours of the compound treatment, CellTiter Glo reagent (Promega) was added at a 1:5 dilution to each well of the cell plate and the cell plate was placed at room temperature for 30 minutes. The luminescence of the wells was determined using a Tecan plate reader.

WM-266-4 cells = assay: Tumor cell line proliferation assay (CellTiter Glo), WM-266-4; details: Homo sapiens, WM 266-4, 96 h, read-out: WM-266-4 (V599D) Cell Proliferation IC50 (nM)
Procedure: as §1

[3] = PBS pH 7.4, 37° C., over the course of 24 hours; cited from earlier work
[4] = In vitro, ERK2 enzyme 0.47 ng/μL

SMILES	pIC50 (ERK2 enzyme; [4])	pIC50 (ERK2 enzyme; In vitro ERK2 enzyme)	also measured
O=C1Nc2cc3[nH]nc(NC4CCOCC4)c3cc2CN1[C@@H]1CN(CC(F)(F)F)C[C@H]1c1ccccc1 [Compound 361]	6.60 to 7.30	–	pIC50 [1]: > 6.60
CC(C)[N+](C)(CCOC(=O)C1c2ccccc2Oc2ccccc21)C(C)C [propantheline]	–	–	plasma stability [2]: intermediate plasma stability
Cc1cc(-c2n[nH]c3cc4[nH]c(=O)c([C@H](C)c5ccc(F)cc5)cc4cc23)ccn1 [Compound 288]	> 7.30	–	pIC50 [1]: > 6.60
Cc1cc(-c2n[nH]c3cc4[nH]c(=O)c(C(C)c5cccc(Cl)c5)cc4cc23)ccn1 (stereo not drawn) [Compound 181]	–	6.60 to 7.30	pIC50 (A375 cells; A-375, 96 hours): > 6.60; pIC50 [1]: > 6.60; IC50 (H358 (Kras, G12C) cells): < 250 nM
CCCOc1cc(N)ccc1C(=O)OCCN(CC)CC [propoxycaine]	–	–	plasma stability [2]: low plasma stability
Cc1cc(-c2n[nH]c3cc4[nH]c(=O)c(Cc5ccccc5)cc4cc23)ccn1 [Compound 6]	–	6.60 to 7.30	pIC50 (A375 cells; A-375, 96 h): 6.00 to 6.60; IC50 (WM-266-4 cells): 250 to 1000 nM
Cc1cc(-c2n[nH]c3cc4c(cc23)CN([C@@H]2CCCN(C(=O)c3cccc(Cl)c3)C2)C(=O)N4)ccn1 [Compound 152]	–	> 7.30	pIC50 [1]: 6.00 to 6.60
O=C(O)CCCc1ccc(N(CCCl)CCCl)cc1 [chlorambucil]	–	–	chemical stability [3]: largely hydrolyzed
O=C1Nc2cc3[nH]nc(-c4ccnnc4)c3cc2CN1Cc1cccc(Cl)c1 [Compound 66]	–	> 7.30	pIC50 [1]: 6.00 to 6.60
Cc1cc(-c2n[nH]c3cc4[nH]c(=O)c(C(C)c5ccc(F)cc5)cc4cc23)ccn1 (stereo not drawn) [Compound 197]	–	> 7.30	pIC50 (A375 cells; A-375, 96 h): > 6.60; pIC50 [1]: > 6.60; IC50 (H358 (Kras, G12C) cells): < 250 nM
Cc1cc(-c2n[nH]c3cc4c(cc23)CC([C@H](C)c2ccccc2)C(=O)N4)ccn1 (stereo partly drawn) [Compound 371]	6.60 to 7.30	–	pIC50 [1]: 6.00 to 6.60
Cc1cc(-c2n[nH]c3cc4c(cc23)CN(Cc2ccc(Cl)cc2)C(=O)N4)ccn1 [Compound 14]	–	> 7.30	–
Cc1cc(-c2n[nH]c3cc4c(cc23)CN([C@@H]2CCCN(CC3CCOCC3)C2)C(=O)N4)ccn1 [Compound 135]	–	6.60 to 7.30	–
Cc1cc(-c2n[nH]c3cc4c(cc23)CN([C@H](C)c2ccc(F)cc2)C(=O)N4)ccn1 [Compound 5]	–	6.60 to 7.30	–
COc1ncc(-c2n[nH]c3cc4c(cc23)CN(Cc2cccc(C(F)(F)F)c2)C(=O)N4)cn1 [Compound 119]	–	> 7.30	–
O=C1Nc2cc3[nH]nc(-c4cccnc4)c3cc2CN1Cc1cccc(Cl)c1 [Compound 57]	–	> 7.30	–
Cc1cc(-c2n[nH]c3cc4c(cc23)CN(Cc2cccc(C#N)c2)C(=O)N4)ccn1 [Compound 55]	–	> 7.30	–
Cc1cc(-c2n[nH]c3cc4[nH]c(=O)c(C5CCCC5)cc4cc23)ccn1 [Compound 289]	> 7.30	–	–
Cc1cc(-c2n[nH]c3cc4c(cc23)CN([C@@H]2CCN(C)C2)C(=O)N4)ccn1 [Compound 255]	> 7.30	–	–
Cc1cc(-c2n[nH]c3cc4c(cc23)CN([C@H]2CN(CC(F)(F)F)C[C@@H]2c2ccccc2)C(=O)N4)ccn1 [Compound 303]	6.00 to 6.60	–	–
CCN1C[C@@H](N2Cc3cc4c(-c5ccnc(C)c5)n[nH]c4cc3NC2=O)[C@H](c2ccccc2)C1 (racemic) [Compound 278]	> 7.30	–	–
Cc1cc(-c2n[nH]c3cc4c(cc23)CN([C@H]2CN(Cc3ccccc3)CC(F)(F)C2)C(=O)N4)ccn1 [Compound 264]	> 7.30	–	–
Cc1cc(-c2n[nH]c3cc4[nH]c(=O)n(Cc5ccccc5)c(=O)c4cc23)ccn1 [Compound 27]	–	> 7.30	–
Cc1cc(-c2n[nH]c3cc4[nH]c(=O)c(C(C)Cc5ccc(F)cc5)cc4cc23)ccn1 (stereo not drawn) [Compound 73]	–	< 6.00	–
Cc1cc(-c2n[nH]c3cc4c(cc23)CN(Cc2ccc(F)c(Cl)c2)C(=O)N4)cc(C)n1 [Compound 226]	> 7.30	–	–
O=C1Nc2cc3[nH]nc(-c4ccc(=O)[nH]c4)c3cc2CN1Cc1cccc(Cl)c1 [Compound 61]	–	> 7.30	–
